Measurements taken from patent publication US20110112149A1, “EPOTHILONE ANALOGUES, THEIR PHARMACEUTICAL COMPOSITIONS, THEIR USE AND THEIR PREPA RATIONS” (priority 2008, published 2011).
pIC50: −log10 of the molar value. Like-named read-outs stand apart in the source and are kept apart here.

Legend:
Format in all cases: cell-based
[1] = system: NCI-H460 (Lung Cancer); experiment: SRB cytotoxicity assay, NCI-H460; settings: cells cultured 3 days with compound, read-out: Activity against cancer cell lines (IC50), NCI-H460 (Lung Cancer)
Text: (§1) The compounds of the present invention can be screened by conventional assays known in the art. For example, cytotoxicity of the compound can be determined according to SRB assay described in Skehan et. al., J. Natl. Cancer Inst. 1990, 82: 1107, which is incorporated herein by reference.
(§2) In the study, sulforhodamine B (SRB) was used for screening the selective compounds of the present invention according to their anti-tumor activity on four different tumor cell lines. In SRB assay, the cultured cells were trypsinized, then counted and diluted to a suitable concentration (5000-7500 cells/100 μl) with a culture medium. The cells were inoculated into a 96-well microtiter plate at 100 μl suspension/well. The test compounds were diluted in the culture medium to 2×1000 nM˜2×0.001 nM, and added to each well in 100 μl after 20 hours. The cells were then cultured for 3 days, fixed with 100 μl 10% trichloroacetic acid at 4° C. for 1 hour, and then stained with 0.2% SRB/1% acetic acid at room temperature for 20 min. The unbound dye was rinsed with 1% acetic acid. The bound dye was dissolved with 200 μl 10 mM Tris-base. The amount of the bound dye was calculated from OD value detected at wavelength of 515 nm. The amount of the bound dye was in direct proportion to the total amount of cell proteins. The data was analyzed with Kaleida Graph Program, and the half inhibitory concentration (IC50) was calculated. Epothilones D and B were detected in parallel for comparison. The results of the cytotoxic experiments on the tested selective compounds according to the present invention are shown as follows. The other compounds according to the present invention may also be detected with the similar method.

[2] = system: NCI/ADR-RES (MDR Breast Cancer); experiment: SRB cytotoxicity assay, NCI/ADR-RES; settings: cells cultured 3 days with compound, read-out: Activity against cancer cell lines (IC50), NCI/ADR-RES (MDR Breast Cancer)
Text: as §1, §2

[3] = system: MCF-7 (Breast Cancer); experiment: SRB cytotoxicity assay, MCF-7; settings: cells cultured 3 days with compound, read-out: Activity against cancer cell lines (IC50), MCF-7 (Breast Cancer)
Text: as §1, §2

[4] = system: SF-268 (Glioma); experiment: SRB cytotoxicity assay, SF-268; settings: cells cultured 3 days with compound, read-out: Activity against cancer cell lines (IC50), SF-268 (Glioma)
Text: as §1, §2

[5] = Homo sapiens, NCI/ADR-RES, 72 h

SMILES	pIC50 [1]	pIC50 [2]	pIC50 [3]	pIC50 [4]	pIC50 ([1]; Homo sapiens, NCI-H460, 72 h)	pIC50 [2, 5]	pIC50 ([3]; Homo sapiens, MCF7, 72 h)	pIC50 ([4]; Homo sapiens, SF-268, 72 h)
C/C(=C\c1csc(C)n1)[C@@H]1C[C@@H]2O[C@]2(C)CCC[C@H](C)[C@H](O)[C@@H](C)C(=O)C(C)(C)[C@@H](O)CC(=O)O1 [Epo B, Epothilone B, reference compound]	9.15	8.30	9.30	9.10				
C/C1=C/C[C@@H](/C(C)=C/c2csc(C)n2)OC(=O)C[C@H](O)C(C)(C)C(=O)[C@H](C)[C@@H](O)[C@@H](C)CCC1 [Epo D, Epothilone D, reference compound]	7.77	7.38	7.89	7.74				
C/C(=C\c1csc(C)n1)C(N)C1OC(=O)CC(O)C(C)(C)C(=O)C(C)C(O)C(C)CCCC2(C)OC12 (centres unmarked) [HH3]					9.30	8.52	9.00	9.00
C/C(=C\c1csc(C)n1)C1OC(=O)CC(O)C(C)(C)C(=O)C(C)C(O)C(C)CCCC2(C)OC12 (centres unmarked) [HH6]					9.30	9.00	9.70	9.00
Cc1nc2cc(C3OC(=O)CC(O)C(C)(C)C(=O)C(C)C(O)C(C)CCCC4(C)OC34)ccc2s1 (centres unmarked) [HH8]					9.70	9.30	9.30	9.00
